Measured values reported in US9943500B2, “Methods of treating topical microbial infections” (LUODA PHARMA PTY LIMITED, priority 2013, dated 2018).
Values after ≈ are worked out from the molar mass of the structure shown. Where two headings read alike, the source gives them in different places.

Experiments:
[1] = test system: methicillin sensitive and methicillin-resistant staphylococci; experiment: Minimum inhibitory concentration assay, 42 Staphylococcus isolates (Example 1); format: cell-based
Protocol: Forty-two isolates of Staphylococcus of varying species and strain type were collected from isolate collections. Biochemical testing including coagulase, latex agglutination testing for protein A, Vogues-Proskauer tests and resistance to polymyxin B were used to identify the species of Staphylococcus. All isolates were also screened for resistance to various antimicrobials commonly used for the treatment of skin infections. This was performed using the disk diffusion method and resistance standards as outlined by the CLSI. The following antimicrobials were used: amoxicillin-clavulanic acid (30 μg), cephalothin (30 μg), clindamycin (2 μg), enrofloxacin (5 μg), erythromycin (15 μg), gentamicin (10 μg), imipenem (10 μg), oxacillin (1 μg), penicillin G (10 units), tetracycline (30 μg), 1:19 trimethoprim-sulfamethoxazole (25 μg) and vancomycin (30 μg).
Minimum inhibitory concentration tests were performed according to CLSI Standards (CLSI 2012). 90 μL of one of the test compound solutions, or ampicillin, was added to the end column of a 96 well plate that contained 90 μL of CAMHB in each well. The solutions were then serially diluted across the row, leaving 2 columns for positive and negative controls (FIG. 2). A bacterial suspension was prepared by adding fresh colonies obtained from an overnight culture on Sheep Blood Agar (SBA) to a 9.1 g/L saline solution. This suspension was adjusted to a concentration of between 4×10^8 and 5×10^8 CFU/mL. […] 1 mL of this suspension was added to 9 mL of saline before being added to all wells, excluding the negative control wells, in 10 μL volumes giving a final concentration of between 4×10^5 and 5×10^5 CFU/mL in each well. The tests were then incubated for 24 hours at 37° C. and then assessed both visually and using OD readings from a microplate reader at a wavelength of 600 nm. These tests were performed in duplicate but repeated if discrepancies were observed.
The minimum inhibitory concentration (MIC) was determined to be the lowest concentration of antibiotic that prevented growth of bacteria both visually and using OD readings. Direct statistical comparisons between the test compounds and ampicillin could not be performed in light of confidential information restrictions, such as restrictions on disclosure of information relating to the compound structure, such as molecular weight. Instead, MIC values were collated and used to determine the lowest concentration of each compound that was effective against 50% and 90% of isolates, referred to as the MIC50 and MIC90 respectively. These values as well as the range of MIC values were then used for direct comparisons between test compounds and for general comparisons with ampicillin.

[2] = test system: 51 Australian bovine mastitis isolates, primarily S. aureus, S. agalactiae and S. uberis; experiment: Minimum inhibitory concentration assay, bovine mastitis isolates (Example 3); format: cell-based; conditions: all 51 isolates
Description: Fifty-one dairy bovine mastitis isolates, encompassing a variety of bacterial species, were isolated from milk samples collected from dairy farms in rural South Australia by the University of Adelaide Ambulatory Clinic. Cellular morphology observed from Gram stains and catalase testing was used to differentiate Staphylococcus, Streptococcus and Corynebacterium species from Gram-negative species. Further biochemical testing including coagulase, Lancefield grouping, esculin hydrolysis and CAMP tests were used to identify the isolates to species level. Where biochemical test results were not definitive in identifying species, amplification and sequencing of the 16S ribosomal RNA gene was used to confirm the identity of the isolates.
Minimum inhibitory concentration tests were performed in the manner outlined by the CLSI (CLSI 2012). Test compounds were dispensed into a 96-well microtitre tray containing 90 μl of CAMHB in 90 μl volumes and serial diluted to obtain a concentration gradient ranging from 128 μg/ml to 0.25 μg/ml (see FIG. 24). For Streptococcus species, CAMHB was replaced with a CAMHB supplement with 4% lysed-sheep blood (4% LSB:CAMHB). 4% LSB:CAMHB was prepared by mixing 5 ml sheep blood to 5 ml milliQ water, and repeated freezing at −20° C. and thawing, followed by centrifuged for 20 min at 7000 rpm. 7 ml of the supernatant was removed and added to 93 mL of CAMB.
Bacterial suspensions were prepared by emulsifying fresh colonies obtained from an overnight culture on Sheep Blood Agar (SBA) in 4 mls of 9.1 g/l physiological saline to an optical density read at 600 nm (OD600 nm) between 1.00 and 1.20. Standardised bacterial suspensions were diluted 1:10 in physiological saline and dispensed into all wells, excluding the negative control wells, in 10 μL volumes giving a final concentration of between 4×10^5 and 5×10^5 CFU/mL in each well. 96-well microtitre trays were incubated for 24 hours at 37° C. in 5% CO2 and then assessed both visually and using OD readings from a microplate reader at a wavelength of 600 nm. These tests were performed in duplicate and repeated if discrepancies in MIC values were observed between replicates.
The minimum inhibitory concentration (MIC) was determined to be the lowest concentration of antibiotic that prevented growth of bacteria both visually and using OD readings. MIC values were collated and used to determine the lowest concentration of each compound effective against 50% and 90% of isolates, known as the MIC50 and MIC90 respectively. These values as well as the range of MIC values were then used for direct comparisons between test compounds and for general comparisons with ampicillin.

[3] = test system: ATCC 49775 reference strain; experiment: Macrodilution time-kill assay (viable counts); conditions: 24 hours
Protocol: (§1) Due to the detection limit of the OD measurements, the time-kill assays were also performed in macrodilution. In 15 mL tubes, 9 mL volumes of the test compounds in CAMHB were prepared at one, four and eight times the MIC concentration and 9 mL volumes of ampicillin were prepared in CAMHB at one and four times the MIC. 1 mL of a 4 to 5×10^6 bacterial suspension (as prepared for MIC testing) was added to each of the tubes as well as a growth control tube containing only 9 mL of CAMHB. These tubes were incubated at 37° C. in an orbital shaker rotating at 100 rpm for 24 hours. At 0, 1, 4, 8, 12 and 24 hours after addition of the bacteria, 100 μL samples were removed from each tube and serial diluted in 9.1 g/L saline solution. The dilutions were then plated in duplicate onto plate count agar and incubated for 24 hours at 37° C. After incubation, viable counts were obtained from the number of colonies visible on the agar and these were used to calculate the number of CFU/mL at each time point. For the macrodilution time-kill analysis, only the ATCC 49775 reference strain and MRSA 9 were assessed in order to further investigate the antibacterial activity against methicillin-resistant strains. These macrodilution time-kill assays were independently repeated and bactericidal activity was defined as a ≥3 log decrease in the number of CFU/mL.

MRSA 9 = experiment: Macrodilution time-kill assay (viable counts); conditions: 24 hours
Protocol: as §1

[4] = test system: ATCC 49775 reference strain; experiment: Microdilution time-kill assay (optical density); conditions: 48 hour period; one, four and eight times the MIC
Protocol: Time-kill assays were performed according to the M26-A guidelines of the CLSI, with modifications. The test compounds and ampicillin were serial diluted in CAMHB across the rows of a 96 well plate and a bacterial suspension was prepared and added in the same manner as the MIC testing. The 96 well plates were then incubated at 37° C. for 48 hours being removed at specific time points and OD for the positive control wells as well as one, four and eight times the MIC of the compound specific to the strain being tested were assessed using a spectrophotometer at a wavelength of 600 nm. The time points assessed were 0, 1, 2, 4, 8, 12, 24 and 48 hours after the addition of the bacterial suspension to the wells. Each test compound was tested in triplicate while ampicillin was tested in duplicate and this test was independently repeated. […] One strain from each of the categories of Staphylococcus in the isolate collection (methicillin-sensitive, methicillin resistant and coagulase negative) were selected as well as the ATCC reference strain for comparison. These strains were strains MSS 1, MSS 11, MRSA 9 and the ATCC 49775 reference strain.

[5] = test system: methicillin-sensitive and methicillin-resistant strains of Staphylococcus; experiment: Minimum bactericidal concentration determination, Staphylococcus isolates (Example 1); conditions: for bactericidal activity (MBC testing): lower concentrations; for strain type for which bactericidal activity was more consistent: methicillin-sensitive versus methicillin-resistant strains
Protocol: Following determination of the MIC using the 96 well MIC plate, a variation of the drop plate method was used to determine minimum bactericidal concentration (MBC) for each of the test compounds. These were analysed using samples taken from the MIC plate following incubation. […] Each concentration was pipetted in duplicate with duplicates being pipetted on an inner ring of drops. The plates were incubated at 37° C. overnight and assessed the following day for growth. The MBC was defined as the concentration at which 99.9% of colonies were eradicated, which was visually assessed by a lack of growth on the agar where the drop was placed.

[6] = dogs; cited from earlier work
[7] = cited from earlier work

## CO[C@@H]1[C@@H](OC)[C@H](C)[C@@](O)(CC(=O)O)O[C@H]1[C@H](C)[C@H]1O[C@@]2(CC[C@@](C)([C@H]3CC[C@@](C)([C@@H]4O[C@@H]([C@H]5O[C@](C)(O)[C@H](C)C[C@@H]5C)C[C@@H]4O[C@@H]4C[C@H](OC)[C@@H](OC)[C@H](C)O4)O3)O2)C[C@H](O)[C@H]1C [LP 6315, Maduramicin]
[1]
  MIC50 and MIC90 values compared with ampicillin: considerably lower than ampicillin
[2]; read-out: MIC90
  MIC90: 4 µg/mL (≈ 4.36 µM)
[3]; most concentrations, ATCC 49775 and MRSA 9
  bactericidal or bacteriostatic (time-kill): bacteriostatic
MRSA 9; four times the MIC
  decrease in colonies: > 3 log10
[4]
  growth (optical density) compared to growth control: prevented the growth
[5]
  bactericidal activity (MBC testing): some bactericidal activity in lower concentrations
  strain type for which bactericidal activity was more consistent: more consistently for methicillin-sensitive strains
[5]; methicillin-resistant isolates
  MBC50 rank among test compounds: lowest MBC50 values

## CC[C@@]1([C@@H]2O[C@@H]([C@H]3O[C@@](O)(CO)[C@H](C)C[C@@H]3C)C[C@@H]2C)CC[C@H]([C@]2(C)CC[C@]3(C[C@H](O)[C@@H](C)[C@@H]([C@@H](C)[C@@H](OC)[C@H](C)C(=O)O)O3)O2)O1 [LP 9666, Monensin]
[1]
  MIC50 and MIC90 values compared with ampicillin: considerably lower than ampicillin
[2]; read-out: MIC90
  MIC90: 128 µg/mL (≈ 191 µM)

## Narasin [LP 4525]
[1]
  MIC50 and MIC90 values compared with ampicillin: considerably lower than ampicillin
[5]
  bactericidal activity (MBC testing): some bactericidal activity in lower concentrations
  strain type for which bactericidal activity was more consistent: more consistently for methicillin-sensitive strains

## CC[C@@H](C(=O)O)[C@@H]1O[C@@H]([C@@H](C)[C@H](O)[C@H](C)C(=O)[C@H](CC)[C@H]2O[C@]3(C=C[C@@H](O)[C@]4(CC[C@@](C)([C@H]5CC[C@](O)(CC)[C@H](C)O5)O4)O3)[C@H](C)C[C@@H]2C)[C@@H](C)C[C@@H]1C [LP 4525, Narasin]
[2]
  MIC50: 0.25 µg/mL (≈ 0.327 µM)
  MIC90: 1 µg/mL (≈ 1.31 µM)

## CC1(C)S[C@@H]2[C@H](NC(=O)[C@H](N)c3ccccc3)C(=O)N2[C@H]1C(=O)O [ampicillin]
[3]; all concentrations tested
  decrease in the number of viable bacteria: > 3 log10
MRSA 9; all concentrations tested
  decrease in the number of viable bacteria: > 3 log10

## CC[C@@H](C(=O)[C@@H](C)[C@@H](O)[C@H](C)[C@@H]1O[C@@H]([C@@H](CC)C(=O)O)CC[C@@H]1C)[C@H]1O[C@]2(C=C[C@@H](O)[C@]3(CC[C@@](C)([C@H]4CC[C@](O)(CC)[C@H](C)O4)O3)O2)[C@H](C)C[C@@H]1C [LP 1088, Salinomycin]
[1]
  MIC50 and MIC90 values compared with ampicillin: considerably lower than ampicillin
[2]; read-out: MIC90
  MIC90: 2 µg/mL (≈ 2.66 µM)
[6]
  daily intake leading to neurotoxic effects (myelin loss, axonal degeneration): more than 500 μg/kg
[7]; accidental inhalation and swallowing of about 1 mg/kg, human
  toxicity after accidental exposure: severe acute and chronic salinomycin toxicity
[7]; humans, European Food Safety Authority risk assessment
  acceptable daily intake (ADI): 5 µg/kg
[5]
  bactericidal activity (MBC testing): some bactericidal activity in lower concentrations
  strain type for which bactericidal activity was more consistent: more consistently for methicillin-sensitive strains
